Key:
[1] = system: nucleolin in medium of U937 cells; assay: Immunoblot of nucleolin shed into serum-free culture medium; type: cell-based, Human
Protocol: The possibility that nucleolin was shed into the cell culture medium was examined by probing serum-free medium from cultures of U937 cells irradiated with UV light in the absence or presence of 3-ABA. Cell culture and treatment conditions were as in Example 2. To prepare protein from the cell culture medium, the medium was replaced with serum-free medium, and cells were irradiated. Cells were then centrifuged at 1,200 rpm for 10 minutes. Culture medium was collected from untreated and treated cells at 2 hours and 4 hours following irradiation. The medium was filtered (syringe filters with PVDF membranes, Whatman; Clifton, N.J.), and protein present in the medium was concentrated using Centricon (YM-30, Millipore, Bedford, Mass.) according the manufacturer's instructions.

[2] = system: nucleolin and PARP-1 proteins in U937 cells; assay: Immunoblot of nucleolin and PARP-1 in S-100 and nuclear extracts after CPT-induced apoptosis; type: cell-based, Human
Protocol: Cells were harvested and washed twice with cold PBS. S-100 and nuclear extracts were prepared (Coqueret and Gascan, 2000). Briefly, 100 μl of ice-cold extraction buffer B (10 mM 4-(2-Hydroxyethyl)piperazine-1-ethanesulfonic acid (HEPES; pH 7.9), 1.5 mM MgCl2, 10 mM KCl, 1 mM phenylmethylsulfonyl fluoride (PMSF), 1 μg/ml leupeptin, 1 μg/ml aprotinin) were added to the cells. After three cycles of freeze-thaw, S-100 extracts were recovered as supernatant following centrifugation at 12,000 rpm for 1 minute, and pellets containing nuclei were resuspended in 40 μl of buffer C (20 mM HEPES, pH 7.9, 1.5 mM MgCl2, 420 mM KCl, 0.2 mM EDTA, 25% glycerol, 1 mM PMSF, 1 μg/ml leupeptin, 1 μg/ml aprotinin). Following 30 minutes incubation at 4° C., insoluble material was removed by centrifugation at 12,000 rpm for 5 minutes, and nuclear extracts were collected as supernatant. Extracts were either used immediately or frozen and stored at −80° C.
The concentration of extracted proteins was determined using the BioRad DC protein assay kit (BioRad; Hercules, Calif.). Samples (10 μg) were incubated in sodium dodecyl sulfate (SDS)-loading buffer (100 mM Tris-HCl, pH 6.8, 200 mM dithiothreitol (DTT), 4% SDS, 0.2% bromophenol blue, 20% glycerol) at 65° C. for 15 minutes, and separated on 10% (for nucleolin detection) or 8% (for PARP-1) polyacrylamide-SDS gels, followed by electroblotting to polyvinylidene difluoride membranes (PVDF, BioRad). After blocking non-specific binding sites for 1 hour in 5% nonfat dried milk in PBST (0.1% polyoxyethylene(20) sorbitan monolaurate (Tween® 20) in PBS), the membrane was incubated for 1 hour at room temperature or overnight at 4° C. with primary antibody (1:1000 anti-nucleolin or anti-PARP-1; Anti-nucleolin antibody (mouse monoclonal IgG1) and anti-PARP-1 antibody (mouse monoclonal IgG2A) were from Santa Cruz Biotechnology; Santa Cruz; Calif.). After 3 washes in PBST, the membrane was incubated with horseradish peroxidase-conjugated goat anti-mouse antibody (Santa Cruz Biotechnology) for 45 minutes at room temperature and then washed 3 times in PBST. Bound antibodies were detected using enhanced chemiluminescence detection. Equal gel loading and transfer of proteins were confirmed by staining membranes with India ink (Bates et al., 1999).
To determine if the phenomena observed in Example 2 were specific to UV-irradiated cells or a general feature of apoptosis, protein changes in U937 cells treated with 10 μM CPT (prepared as in Example 1) for 24 hours were also examined. The U937 cells were cultured as in Example 2. Apoptosis-induced changes in nucleolin and PARP-1 were examined as in Example 2.

U937 cells [3] = assay: MTT viable cell assay after UV irradiation; type: cell-based, Human; conditions: 1 mM 3-ABA pre-treatment, MTT 48 hours after irradiation
Protocol: Because PARP-1 is involved in both repair of DNA damage and induction of apoptosis, 3-ABA can both increase apoptotic cell death (by preventing repair) or decrease it (by preventing PARP-1 cleavage), depending on conditions. Therefore, the ability of 3-ABA to inhibit cell death under the conditions used here was examined. Cells were subjected to UV irradiation with or without 1 mM 3-ABA pre-treatment. Untreated and irradiated cells were plated at 2×10^4/ml in a 96-well plate. Viable cells were assessed using the MTT (3-[4,5-dimethylthiazol-2-yl]-2,5-diphenyl tetrazolium bromide) assay (Norgaard et al., 2001) 48 hours after irradiation.

[4] = system: nucleolin and PARP-1 proteins in U937 cells; assay: Immunoblot of nucleolin and PARP-1 in S-100 and nuclear extracts after UV-induced apoptosis; type: cell-based, Human; conditions: UV-irradiated U937 cells, 30 minutes pre-incubation with 1 mM 3-ABA
Protocol: The concentration of extracted proteins was determined using the BioRad DC protein assay kit (BioRad; Hercules, Calif.). […] After 3 washes in PBST, the membrane was incubated with horseradish peroxidase-conjugated goat anti-mouse antibody (Santa Cruz Biotechnology) for 45 minutes at room temperature and then washed 3 times in PBST. Bound antibodies were detected using enhanced chemiluminescence detection. Equal gel loading and transfer of proteins were confirmed by staining membranes with India ink (Bates et al., 1999).
Some cells received 30 minutes pre-incubation with 1 mM 3-ABA before UV-irradiation.

nucleolin in U937 cells = assay: Immunofluorescence staining of nucleolin in cells; type: cell-based, Human
Protocol: Cells were collected by centrifugation, washed twice with PBS, and placed on glass slides using a cytospinner. Samples were fixed in 4% paraformaldehyde in PBS for 15 minutes at room temperature and then permeabilized with 0.2% Triton X-100 in PBS for 10 minutes. After two washes with PBS, nonspecific antibody binding sites were blocked by 1 hour incubation at room temperature with 5% normal goat serum in PBS. After 3 washes with PBS, slides were incubated in primary antibody (1:100 anti-mAb IgG1; Santa Cruz Biotechnology) for 1 hour at room temperature then washed 3 times in PBS. Samples were incubated with Alexa-488-labeled secondary antibodies (diluted 1:500 in blocking buffer) for 1 hour at room temperature. Slides were washed 3 times in PBS, were observed using an Olympus BX60F fluorescence microscope and photographed using an Olympus DPIO camera.
Untreated, UV-irradiated, and 10 μM CPT-treated U937 cells were examined using the above staining method. Culture and treatment conditions were as in Example 2. […] Moreover, there was a dramatic redistribution of nucleolin in the apoptotic nuclei. In untreated cells, nucleolin was predominantly located in the intensely stained nucleoli (FIG. 1, panels A and D), whereas 24 hours after UV irradiation, nucleolin was distributed throughout the nucleolplasm in a speckled pattern (FIG. 1, panels B and E). […]

U937 cells [5] = assay: DNA fragmentation (DNA ladder) assay of apoptosis; type: cell-based, Human; conditions: 10 μM CPT
Protocol: Camptothecin (CPT; Sigma Co.; St. Louis, Mo.), an anti-neoplastic topo-isomerase I (Top I) inhibitor, was dissolved in 0.5% (v/v) dimethyl sulfoxide (DMSO)/PBS as stock solutions (stored at −20° C.) and further diluted with water before use. Human U937 cells (myeloid leukemia cell line, from American Type Culture Collection (ATCC); Manassas, Va.) were grown in suspension in RPMI 1640 medium supplemented with 10% heat-inactivated (20 minutes at 65° C.) fetal bovine serum (FBS), 100 U/ml penicillin, 100 μg/ml streptomycin at 37° C. with 5% CO2. For treatment with CPT, exponentially growing U937 cells were treated with 10 μM CPT for 24 hours. For UV irradiation, cells were plated at 5×10^5 cells/ml in dishes (60 mm diameter). The cells were irradiated with UV-light by placing the plate (without a lid) directly in a Stratagene (La Jolla) UV Stratalinker and irradiating for 30 seconds at 254 nm. Some cells received 30 minutes pre-incubation with 1 mM 3-aminobenzamide (ABA); Sigma). Cells were then replaced in the incubator at 37° C. for various times. Apoptosis was observed using a DNA fragmentation assay (Facompre et al., 2001). In this assay, apoptosis is indicated by the appearance of a DNA “ladder”, which is produced by endonuclease cleavage of chromosomal DNA into nucleosomal fragments.

[6] = biological target: plasma membrane nucleolin (Homo sapiens, UniProt P19338); set-up: key: 1: Indicates a good plasma membrane nucleolin-binding GRO.; 2: Indicates a nucleolin control (non-plasma membrane nucleolin binding); conditions: superscript on GRO name in Table 2; cited from earlier work
Sequence of plasma membrane nucleolin (P19338 whole entry): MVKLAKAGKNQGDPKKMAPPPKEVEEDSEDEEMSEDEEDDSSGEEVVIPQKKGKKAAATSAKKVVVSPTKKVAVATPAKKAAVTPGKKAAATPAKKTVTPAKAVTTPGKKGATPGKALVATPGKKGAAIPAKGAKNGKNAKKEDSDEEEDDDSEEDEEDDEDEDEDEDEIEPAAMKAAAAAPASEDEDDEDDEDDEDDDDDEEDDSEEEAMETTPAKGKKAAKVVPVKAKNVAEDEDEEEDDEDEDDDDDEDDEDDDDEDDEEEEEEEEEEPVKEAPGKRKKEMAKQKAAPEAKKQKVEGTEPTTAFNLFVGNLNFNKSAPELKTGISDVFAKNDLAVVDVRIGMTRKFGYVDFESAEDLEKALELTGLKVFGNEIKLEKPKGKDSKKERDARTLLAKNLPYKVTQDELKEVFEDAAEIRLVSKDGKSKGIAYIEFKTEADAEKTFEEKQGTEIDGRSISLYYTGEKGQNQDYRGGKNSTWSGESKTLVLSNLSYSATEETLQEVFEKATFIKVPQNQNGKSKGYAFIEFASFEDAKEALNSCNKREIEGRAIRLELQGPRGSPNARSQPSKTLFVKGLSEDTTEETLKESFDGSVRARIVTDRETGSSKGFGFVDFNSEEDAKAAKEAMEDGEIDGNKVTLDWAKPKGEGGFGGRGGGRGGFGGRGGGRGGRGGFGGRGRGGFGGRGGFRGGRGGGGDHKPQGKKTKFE

[7] = U937 cells, 10 μM CPT for 24 hours

Compound	plasma membrane nucleolin binding designation [6]	further results
NC(=O)c1cccc(N)c1 [3-ABA, 3-aminobenzamide]		nucleolin in medium of untreated (non-irradiated) cells ([1]; U937 cells without UV irradiation, with 3-ABA treatment): almost no nucleolin was detected; appearance of full-length nucleolin band in medium after UV irradiation ([1]; UV-irradiated U937 cells, serum-free medium, with 3-ABA): inhibited; protection from apoptosis-induced changes in nucleolin and PARP-1 ([2]; CPT-treated U937 cells, pre-incubation with 3-ABA): only a small degree of protection; reduction of UV-induced cell death (U937 cells [3]): only to a small degree; PARP-1 cleavage [4]: abrogation of PARP-1 cleavage; disappearance of S-100 nucleolin [4]: drastically inhibited the disappearance of S-100 nucleolin; loss of nuclear nucleolin [4]: prevented the loss of nuclear nucleolin
CC[C@@]1(O)C(=O)OCc2c1cc1n(c2=O)Cc2cc3ccccc3nc2-1 [CPT, Camptothecin]		nuclear nucleolin [2, 7]: reduced the amount of nuclear nucleolin; nucleolin in S-100 fraction [2, 7]: caused a disappearance of nucleolin from the S-100 fraction; PARP-1 cleavage ([2]; U937 cells, 10 μM CPT, after 4 hours): only partial cleavage; distribution of nucleolin in nuclei (nucleolin in U937 cells; U937 cells treated with CPT for 24 hours): the majority of nuclei exhibited a distinct pattern of staining; overall intensity of nuclear nucleolin staining (nucleolin in U937 cells; U937 cells, 10 μM CPT): decreased slightly; induction of apoptosis (DNA ladder) (U937 cells [5]): induced apoptosis; time at which DNA ladder clearly observed (U937 cells [5]): 24 h
CRO: SEQ ID NO:18 tttcctcctc ctccttctcc tcctcctcc; nucleolin control (DNA TTTCCTCCTCCTCCTTCTCCTCCTCCTCC; listed as DNA, chemistry not given here)	CRO^2	
GRO15B: SEQ ID NO:8 ttgggggggg tgggt (TTGGGGGGGGTGGGT; listed as DNA, chemistry not given here)	GRO15B^2	
GRO26B: SEQ ID NO:10 ggtggtggtg gttgtggtgg tggtgg	GRO26B^1	
GRO G: SEQ ID NO:25 ggttggtgtg gttgg	GRO G^1	
GRO H: SEQ ID NO:26 ggggttttgg gg (DNA GGGGTTTTGGGG; listed as DNA, chemistry not given here)	GRO H^1	
GRO I: SEQ ID NO:27 gggttttggg (DNA GGGTTTTGGG; listed as DNA, chemistry not given here)	GRO I^1	
GRO J: SEQ ID NO:28 ggggttttgg ggttttgggg ttttgggg (DNA GGGGTTTTGGGGTTTTGGGGTTTTGGGG; listed as DNA, chemistry not given here)	GRO J^1	
GRO K: SEQ ID NO:29 ttggggttgg ggttggggtt gggg (DNA TTGGGGTTGGGGTTGGGGTTGGGG; listed as DNA, chemistry not given here)	GRO K^1	
GRO M: SEQ ID NO:31 ggttttggtt ttggttttgg ttttgg (DNA GGTTTTGGTTTTGGTTTTGGTTTTGG; listed as DNA, chemistry not given here)	GRO M^1	
GRO N: SEQ ID NO:32 tttcctcctc ctccttctcc tcctcctcc; nucleolin control (DNA TTTCCTCCTCCTCCTTCTCCTCCTCCTCC; listed as DNA, chemistry not given here)	GRO N^2	
GRO O: SEQ ID NO:33 cctcctcctc cttctcctcc tcctcc; nucleolin control (DNA CCTCCTCCTCCTTCTCCTCCTCCTCC; listed as DNA, chemistry not given here)	GRO O^2	
GRO P: SEQ ID NO:34 tggggt; nucleolin control	GRO P^2	
GRO Q: SEQ ID NO:35 gcatgct; nucleolin control (DNA GCATGCT; listed as DNA, chemistry not given here)	GRO Q^2	
GRO R: SEQ ID NO:36 gcggtttgcg g; nucleolin control (DNA GCGGTTTGCGG; listed as DNA, chemistry not given here)	GRO R^2	
GRO S: SEQ ID NO:37 tagg; nucleolin control (DNA TAGG; listed as DNA, chemistry not given here)	GRO S^2	
